Conditions: Gas, Buoyancy - hydrostatic balance with magnetic suspension - one sinker

C=C(F)C(F)(F)F [2,3,3,3-tetrafluoro-1-propene]
Conditions | mass density [kg/m3]
252.64 K, 70 kPa | 3.88
252.64 K, 110 kPa | 6.265
252.64 K, 124 kPa | 7.097
262.07 K, 81 kPa | 4.341
262.08 K, 113 kPa | 6.19
262.08 K, 136 kPa | 7.456
262.08 K, 157 kPa | 8.696
262.08 K, 169 kPa | 9.424
270.18 K, 105 kPa | 5.505
270.18 K, 132 kPa | 6.952
270.18 K, 172 kPa | 9.215
270.18 K, 232 kPa | 12.71
270.19 K, 256 kPa | 14.125
279.64 K, 75 kPa | 3.732
279.65 K, 118 kPa | 5.957
279.65 K, 168 kPa | 8.6
279.65 K, 219 kPa | 11.398
279.66 K, 261 kPa | 13.822
279.66 K, 302 kPa | 16.231
279.67 K, 352 kPa | 19.153
289.17 K, 279 kPa | 14.228
289.17 K, 433 kPa | 23.141
289.18 K, 186 kPa | 9.245
289.18 K, 223 kPa | 11.205
289.18 K, 344 kPa | 17.869
289.18 K, 502 kPa | 27.513
289.19 K, 84 kPa | 4.052
289.19 K, 143 kPa | 7.017
298.63 K, 249 kPa | 12.098
298.63 K, 312 kPa | 15.415
298.63 K, 363 kPa | 18.154
298.63 K, 419 kPa | 21.272
298.63 K, 599 kPa | 32.147
298.63 K, 647 kPa | 35.336
298.64 K, 134 kPa | 6.319
298.64 K, 204 kPa | 9.779
308.12 K, 125 kPa | 5.711
308.12 K, 242 kPa | 11.284
308.13 K, 188 kPa | 8.693
308.13 K, 282 kPa | 13.311
308.13 K, 367 kPa | 17.655
308.13 K, 460 kPa | 22.624
308.14 K, 517 kPa | 25.797
308.14 K, 551 kPa | 27.714
308.14 K, 608 kPa | 31.08
308.14 K, 741 kPa | 39.419
317.63 K, 418 kPa | 19.56
317.63 K, 514 kPa | 24.547
317.63 K, 613 kPa | 30.022
317.63 K, 892 kPa | 46.934
317.64 K, 202 kPa | 9.037
317.64 K, 351 kPa | 16.204
317.66 K, 116 kPa | 5.083
317.66 K, 166 kPa | 7.365
327.25 K, 522 kPa | 23.936
327.25 K, 597 kPa | 27.809
327.25 K, 825 kPa | 40.447
327.25 K, 1152 kPa | 61.545
327.26 K, 299 kPa | 13.167
327.26 K, 372 kPa | 16.57
327.26 K, 463 kPa | 20.996
327.27 K, 97 kPa | 4.113
327.27 K, 153 kPa | 6.549
327.27 K, 235 kPa | 10.227
336.67 K, 110 kPa | 4.549
336.67 K, 321 kPa | 13.728
336.67 K, 424 kPa | 18.45
336.67 K, 501 kPa | 22.051
336.67 K, 618 kPa | 27.852
336.67 K, 667 kPa | 30.331
336.67 K, 693 kPa | 31.586
336.67 K, 873 kPa | 41.236
336.67 K, 1254 kPa | 64.685
336.67 K, 1683 kPa | 100.038
336.68 K, 237 kPa | 10.013
345.74 K, 1557 kPa | 81.658
345.74 K, 1910 kPa | 112.152
345.75 K, 517 kPa | 21.914
345.75 K, 739 kPa | 32.609
345.75 K, 886 kPa | 40.193
345.75 K, 1229 kPa | 59.662
345.76 K, 145 kPa | 5.863
345.76 K, 305 kPa | 12.598

Source: the NIST ThermoML archive (doi:10.1021/acs.jced.7b00427)
